Values after ≈ are worked out from the molar mass of the structure shown. Active and inactive are the calls of the source. The rule behind the calls is not given here.
Experiments:
[1] = test system: Plasmodium falciparum; assay: Antimalarial activity against Plasmodium falciparum W2; assay type: functional, organism-based
[2] = test system: Plasmodium falciparum; assay: Antimalarial activity against Plasmodium falciparum D6; assay type: functional, organism-based
[3] = test system: Vero; assay: Cytotoxicity against african green monkey Vero cells; assay type: cell-based; settings: chlorocebus sabaeus
[4] = test system: Cryptococcus neoformans; assay: Antifungal activity against Cryptococcus neoformans; assay type: functional, organism-based
[5] = test system: Candida albicans; assay: Antifungal activity against Candida albicans; assay type: functional, organism-based
[6] = test system: Mycobacterium intracellulare; assay: Antibacterial activity against Mycobacterium intracellular; assay type: functional

Row | SMILES | Activity [1] | Activity [2] | Activity [3] | Activity [4] | Activity [5] | MIC [6] [µg/mL]
1 | CNCCCN(C=O)c1cc[nH]c1 [SOLSODOMINE B] | inactive | inactive | Not Active | inactive | inactive | –
2 | O=CN(CCc1cnc[nH]1)c1cc[nH]c1 [SOLSODOMINE A] | inactive | inactive | Not Active | inactive | inactive | 10 (≈ 49 µM)

Reference: ChEMBL document CHEMBL1150914, “New pyrrole alkaloids from Solanum sodomaeum” (J Nat Prod, 1998)
